Source: BindingDB's records for doi:10.1016/j.bmcl.2007.07.021 (Boehringer Ingelheim Pharmaceuticals, 2007)

Biological target: T1, Mineralocorticoid receptor (Homo sapiens, UniProt P08235)
T1 sequence (P08235 whole entry): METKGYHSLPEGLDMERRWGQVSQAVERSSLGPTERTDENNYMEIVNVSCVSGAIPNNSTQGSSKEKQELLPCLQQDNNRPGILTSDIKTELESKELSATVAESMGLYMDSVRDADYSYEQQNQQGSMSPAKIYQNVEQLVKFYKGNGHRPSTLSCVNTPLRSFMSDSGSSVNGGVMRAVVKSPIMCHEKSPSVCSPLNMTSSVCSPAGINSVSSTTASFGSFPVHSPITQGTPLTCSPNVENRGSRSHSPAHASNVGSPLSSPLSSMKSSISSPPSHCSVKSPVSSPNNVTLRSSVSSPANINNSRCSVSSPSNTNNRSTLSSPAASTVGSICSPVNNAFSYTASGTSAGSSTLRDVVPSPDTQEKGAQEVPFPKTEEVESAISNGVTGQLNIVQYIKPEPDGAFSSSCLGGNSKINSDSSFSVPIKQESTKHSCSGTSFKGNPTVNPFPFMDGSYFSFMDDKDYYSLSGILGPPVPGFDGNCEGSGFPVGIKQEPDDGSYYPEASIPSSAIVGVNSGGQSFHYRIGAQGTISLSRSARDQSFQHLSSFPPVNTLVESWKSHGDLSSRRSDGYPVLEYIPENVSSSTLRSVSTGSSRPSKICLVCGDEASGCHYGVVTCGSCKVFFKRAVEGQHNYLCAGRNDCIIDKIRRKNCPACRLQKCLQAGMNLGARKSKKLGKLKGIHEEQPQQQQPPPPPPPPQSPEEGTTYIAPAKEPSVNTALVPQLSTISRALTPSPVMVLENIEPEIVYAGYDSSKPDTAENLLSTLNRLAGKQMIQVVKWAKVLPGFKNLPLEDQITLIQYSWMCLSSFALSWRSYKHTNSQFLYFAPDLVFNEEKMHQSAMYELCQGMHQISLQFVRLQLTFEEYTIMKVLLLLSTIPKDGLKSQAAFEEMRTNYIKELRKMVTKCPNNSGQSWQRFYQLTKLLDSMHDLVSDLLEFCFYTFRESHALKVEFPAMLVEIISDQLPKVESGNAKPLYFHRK
Assay: Fluorescence Polarization Competitive Binding Assay.
Text: IC50 values shown are means of a single experiment done in duplicate 11-point concentration-effect curves.

Compound: C=CCOC(C)C1=CC(C)(C)Nc2ccc(-c3ccccc3OC)cc21 (stereo unspecified) [6-(2-methoxyphenyl)-2,2-dimethyl-4-[1-(prop-2-en-1-yloxy)ethyl]-1,2-dihydroquinoline]
- IC50: 970 nM
